# Reference: patent US12492337B2, “Fluorescent probe, preparation method therefor and use thereof” (FLUORESCENCE DIAGNOSIS (SHANGHAI) BIOTECH COMPANY, priority 2017, dated 2025)
# Tests used:
# [1] = system: HaloTag protein tag; assay: Probe mixed with HaloTag protein tag, fluorescence spectrophotometer (Example 86); format: biochemical; conditions: 5 μM probe, 10 μM protein tag, 37° C., 1 hour; for Fluorescence enhancement: fluorescence activation multiple after binding protein tag; for Emission/nm: fluorescence emission wavelength
# Description: (§1) A probe was mixed with a corresponding HaloTag protein tag to obtain a mixed sample. The final concentration of the probe in the mixed sample was 5 μM and the final concentration of the protein tag was 10 μM. The mixed sample was incubated at 37° C. for 1 hour, and the sample was detected using a fluorescence spectrophotometer.
# [2] = Quantum yield of free probe not reacted with protein tag; format: physicochemical
# Description: as §1
# [3] = Viscosity responsiveness: fluorescence intensity in glycerol versus methanol; format: physicochemical; conditions: fluorescence intensity in glycerol to that in methanol
# Outline: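 At 25 °C, with the same dye concentration and excitation wavelength, maximum emission intensity in glycerol was compared with intensity in methanol, giving a ratio. Dye concentrations ranged from 1×10^−7 M to 1×10^−5 M.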
# [4] = system: Hela cells stably expressing HaloTag protein tags; assay: Confocal imaging of labeled Hela cells stably expressing HaloTag protein tags (Example 89); format: cell-based; conditions: Homo sapiens, 5 μM probe, 2 hours, 37° C., confocal microscope, read-out: fluorescence signal enhancement in Hela cells expressing the protein tag
# Description: (§2) Hela cells are used as an example to test the labeling effect of compounds in mammalian cells. Hela cells and Hela-WT cells (Hela primitive cell, without a protein tag expressed) stably expressing HaloTag protein tags were planted in 14 mm 96-well glass bottom cell culture plates and stabilized for 10 hours. Probe 57, probe 59, probe 60, probe 61, probe 69, probe 75, probe 76, probe 82 were added to the culture medium and diluted to 5 μM, respectively. The cells were incubated in a 37° C. carbon dioxide incubator for 2 hours, and the fluorescence changes of the labeled cells were detected by imaging with a Leica TPS-8 confocal microscope.
# [5] = system: Hela-WT cells; assay: Confocal imaging of Hela-WT cells without protein tag (Example 89); format: cell-based; conditions: 5 μM probe, 2 hours, 37° C., confocal microscope
# Description: as §2
# [6] = system: HaloTag protein tags in different subcellular organelles of Hela cells; assay: Labeling HaloTag protein tags in different subcellular organelles of Hela cells (Example 90); format: cell-based; conditions: 0.2 μM probe, 2 hours, no washing; cytoskeleton, mitochondria, nucleus, Golgi, whole cells, lysosomes
# Description: In order to verify that probe 57, probe 59, probe 60, probe 61, probe 62, and probe 63 can be used to label target proteins located in different organelles. Hela cells were used as examples to detect the effect of probes on labeling HaloTag protein tags in different subcellular organelles. Hela cells were implanted 5000 cells per well in 96-well glass-bottom cell culture plates. After 14 hours, lipo2000 kit was used to transfect the plasmids localized by HaloTag protein tags in different organelles. The original culture medium was removed 24 hours after transfection, and the cells were washed twice with a phenol red-free DMEM medium, and incubated for 2 hours in a phenol red-free medium containing 0.2 μM probes, and the effect of cell labelling was detected by imaging using a Leica TCS-8 confocal microscope.
SMILES,The quantum yield after binding to Halo-tag [1],Fluorescence enhancement [1],Emission/nm [1] [nm],The quantum yield of the free probe [2],ratio [3],fold induction at 5 µM [4],fluorescent signal in Hela-WT cells [5],effect of cell labelling of subcellular organelles [6]
N#C/C(=C\c1cc2c3c(c1)CCCN3CCC2)C(=O)NCCOCCOCCCCCCCl [Probe 59],0.45,498,500,<0.001,370,~200,no corresponding fluorescent signal could be detected,clearly display a variety of subcellular organelle structures without washing
CN1CCSc2cc(/C=C(\C#N)C(=O)NCCOCCOCCCCCCCl)ccc21 [Probe 60],0.65,751,520,0.0011,1199,~200,no corresponding fluorescent signal could be detected,clearly display a variety of subcellular organelle structures without washing
CN(C)c1ccc2nc(/C=C(\C#N)C(=O)NCCOCCOCCCCCCCl)ccc2c1 [Probe 62],0.57,592,590,<0.001,711,,,clearly display a variety of subcellular organelle structures without washing
CN(C)c1ccc2cc(/C=C(\C#N)C(=O)NCCOCCOCCCCCCCl)sc2c1 [Probe 63],0.70,486,570,0.0015,531,,,clearly display a variety of subcellular organelle structures without washing
CN(C)c1ccc2nc(/C=C(\C#N)C(=O)NCCOCCOCCCCCCCl)oc2c1 [Probe 69],0.47,491,610,<0.001,317,~200,no corresponding fluorescent signal could be detected,
CN(C)c1cc2sc3cc(/C=C(\C#N)C(=O)NCCOCCOCCCCCCCl)sc3c2s1 [Probe 75],0.56,589,620,0.0021,500,~200,no corresponding fluorescent signal could be detected,
CN(C)c1cc2c(s1)-c1sc(/C=C(\C#N)C(=O)NCCOCCOCCCCCCCl)cc1C2(C)C [Probe 76],0.58,666,640,0.0011,386,~200,no corresponding fluorescent signal could be detected,
CN(C)c1cc2c(s1)-c1sc(/C=C(\C#N)C(=S)NCCOCCOCCCCCCCl)cc1C2(C)C [Probe 82],0.51,781,660,<0.001,475,~200,no corresponding fluorescent signal could be detected,
